Substitutions are numbered along the chain they refer to.
Legend:
[1] = molecular target: T1, wild-type Androgen Receptor (AR-wt) (Homo sapiens, UniProt P10275); test: LNCaP-AR-wt AG: ARE luciferase reporter assay, agonist mode; type: cell-based; settings: maximum % stimulation (agonist response), % of 1 μM R-1881 max
T1 construct: expressed in transfected cells; host or cells: LNCaP AR (cs) cells with ARE firefly luciferase lentiviral construct
T1 sequence (P10275 1-920): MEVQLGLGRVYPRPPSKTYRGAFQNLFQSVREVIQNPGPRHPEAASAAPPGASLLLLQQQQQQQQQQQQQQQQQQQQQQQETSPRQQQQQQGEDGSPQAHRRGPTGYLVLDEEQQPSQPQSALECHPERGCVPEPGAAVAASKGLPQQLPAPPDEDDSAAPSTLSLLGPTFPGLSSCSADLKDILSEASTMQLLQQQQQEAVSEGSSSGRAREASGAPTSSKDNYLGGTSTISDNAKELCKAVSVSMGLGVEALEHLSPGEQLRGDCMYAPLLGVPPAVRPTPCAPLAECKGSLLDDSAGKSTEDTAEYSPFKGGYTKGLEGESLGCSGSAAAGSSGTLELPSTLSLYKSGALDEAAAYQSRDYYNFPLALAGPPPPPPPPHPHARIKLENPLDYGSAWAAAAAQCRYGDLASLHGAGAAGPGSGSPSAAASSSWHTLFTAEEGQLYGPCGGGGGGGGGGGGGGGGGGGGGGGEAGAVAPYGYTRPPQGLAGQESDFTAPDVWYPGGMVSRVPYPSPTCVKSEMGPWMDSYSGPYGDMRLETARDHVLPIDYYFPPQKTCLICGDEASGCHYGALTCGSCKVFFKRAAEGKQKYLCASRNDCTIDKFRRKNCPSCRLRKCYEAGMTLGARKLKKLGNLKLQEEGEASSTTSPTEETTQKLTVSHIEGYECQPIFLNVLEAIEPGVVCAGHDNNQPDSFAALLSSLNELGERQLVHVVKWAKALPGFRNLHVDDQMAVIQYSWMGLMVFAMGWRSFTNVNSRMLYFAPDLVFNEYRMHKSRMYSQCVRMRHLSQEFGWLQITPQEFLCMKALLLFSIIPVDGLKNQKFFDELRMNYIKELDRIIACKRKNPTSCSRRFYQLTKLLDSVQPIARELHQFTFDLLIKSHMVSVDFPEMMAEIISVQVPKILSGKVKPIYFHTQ
Description: (§1) A stable pooled-population cell line was generated using puromycin (Life Technologies) selection at 1:10,000 v/v. The protocol below was used for both cell lines and for testing of the compounds of Formula (I) of the present invention.
(§2) LNCaP cells were grown to about 80% confluence, media removed and cells rinsed in Hank's balanced salt solution prior to separation from the plate with 0.05% Trypsin EDTA. Cells were lifted and trypsin negated in complete CSS (charcoal stripped serum) culture media. […] Agonist challenge was at 400 pM for WT assay and 600 pM for F876L assay. Plates containing cells and compounds herein were incubated for a further 20-24 hours at 37° C., 5% CO2 before addition of 40 μL/well of Steady-Glo Luciferase Assay System Reagent (Promega# E2520). After 1 h, plates were read for luminescence on a BMG Pherastar.
(§3) EC/IC50 calculations were achieved utilizing calculated RLU data and data fitting macros. Data were fit using least-squares methods to the following formula: […]
(§4) As used herein: pIC50 is defined as—Log10(IC50 expressed in [Molar]). pEC50 is defined as—Log10(EC50 expressed in [Molar]). […] LNCaP-AR-wt ANT refers to the reporter assay using LNCaP cells stably transfected with the Androgen Response Element Firefly Luciferase lentiviral construct and wild-type Androgen Receptor (AR-wt) in Antagonist mode. LNCaP-AR-wt AG refers to the reporter assay using LNCaP cells stably transfected with the Androgen Response Element Firefly Luciferase lentiviral construct and wild-type Androgen Receptor (AR-wt) in Agonist mode. LNCaP-AR-F876L ANT refers to the reporter assay using LNCaP cells stably transfected with the Androgen Response Element Firefly Luciferase lentiviral construct and F876L mutant Androgen Receptor (AR-F876L) in Antagonist mode. LNCaP-AR-F876L AG refers to the reporter assay using LNCaP cells stably transfected with the Androgen Response Element Firefly Luciferase lentiviral construct and F876L mutant Androgen Receptor (AR-F876L) in Agonist mode.

[2] = molecular target: T2, F876L mutant Androgen Receptor (AR-F876L) (Homo sapiens, UniProt P10275, F877L); test: LNCaP-AR-F876L AG: ARE luciferase reporter assay, agonist mode; type: cell-based; settings: maximum % stimulation (agonist response), % of 1 μM R-1881 max
T2 construct: expressed in transfected cells; host or cells: LNCaP F876L cells with ARE firefly luciferase lentiviral construct
T2 sequence (P10275 1-920 F877L): T1 sequence (P10275 1-920) with F877L
Description: as §1, §2, §3, §4

SMILES	LNCaP-AR-wt AG MAX % Stim [1]	LNCaP-AR-F876L AG MAX % Stim [2]
N#Cc1ncc(N2C(=O)C3(CCC3)N(c3ccc(C(=O)NCCCc4ccccc4)c(F)c3)C2=S)cc1C(F)(F)F [Cpd 57, 4-[6-[6-cyano-5-(trifluoromethyl)-3-pyridyl]-5-oxo-7-thioxo-6,8-diazaspiro[3.4]octan-8-yl]-2-fluoro-N-(3-phenylpropyl)benzamide]	0.0%	0.5%
N#Cc1ncc(N2C(=O)C3(CCC3)N(c3ccc(C(=O)NCc4cccs4)c(F)c3)C2=S)cc1C(F)(F)F [Cpd 59, 4-[6-[6-cyano-5-(trifluoromethyl)-3-pyridyl]-5-oxo-7-thioxo-6,8-diazaspiro[3.4]octan-8-yl]-2-fluoro-N-(2-thienylmethyl)benzamide]	1.5%	0.7%
Cc1cc(N2C(=O)C3(CCC3)N(c3ccc(Oc4ccncn4)cc3)C2=S)cnc1C#N [Cpd 62, 3-methyl-5-[5-oxo-8-(4-pyrimidin-4-yloxyphenyl)-7-thioxo-6,8-diazaspiro[3.4]octan-6-yl]pyridine-2-carbonitrile]	0.8%	0.4%
Cc1cc(N2C(=O)C3(CCC3)N(c3ccc(C(=O)Nc4nccs4)c(F)c3)C2=S)cnc1C#N [Cpd 63, 4-[6-(6-cyano-5-methyl-3-pyridyl)-5-oxo-7-thioxo-6,8-diazaspiro[3.4]octan-8-yl]-2-fluoro-N-thiazol-2-yl-benzamide]	0.7%	0.3%
N#Cc1ncc(N2C(=O)C3(CCC3)N(c3ccc(C(=O)NCc4cccnc4)c(F)c3)C2=S)cc1C(F)(F)F [Cpd 67, 4-[6-[6-cyano-5-(trifluoromethyl)-3-pyridyl]-5-oxo-7-thioxo-6,8-diazaspiro[3.4]octan-8-yl]-2-fluoro-N-(3-pyridylmethyl)benzamide]	1.5%	0.8%
CCCNC(=O)c1ccc(N2C(=S)N(c3cnc(C#N)c(C(F)(F)F)c3)C(=O)C23CCC3)cc1F [Cpd 68, 4-[6-[6-cyano-5-(trifluoromethyl)-3-pyridyl]-5-oxo-7-thioxo-6,8-diazaspiro[3.4]octan-8-yl]-2-fluoro-N-propyl-benzamide]	0.2%	0.9%
N#Cc1ncc(N2C(=O)C3(CCC3)N(c3ccccc3)C2=S)cc1C(F)(F)F [Cpd 70, 5-(5-oxo-8-phenyl-7-thioxo-6,8-diazaspiro[3.4]octan-6-yl)-3-(trifluoromethyl)pyridine-2-carbonitrile]	0.3%	0.9%
N#Cc1ncc(N2C(=O)C3(CCC3)N(c3ccc(Oc4ccncn4)cc3)C2=S)cc1C(F)(F)F [Cpd 71, 5-[5-oxo-8-(4-pyrimidin-4-yloxyphenyl)-7-thioxo-6,8-diazaspiro[3.4]octan-6-yl]-3-(trifluoromethyl)pyridine-2-carbonitrile]	0.5%	0.9%
N#Cc1ncc(N2C(=O)C3(CCC3)N(c3ccc(C(=O)NCCCN4CCOCC4)c(F)c3)C2=S)cc1C(F)(F)F [Cpd 72, 4-[6-[6-cyano-5-(trifluoromethyl)-3-pyridyl]-5-oxo-7-thioxo-6,8-diazaspiro[3.4]octan-8-yl]-2-fluoro-N-(3-morpholinopropyl)benzamide]	0.3%	0.6%
Cc1ccc(NC(=O)c2ccc(N3C(=S)N(c4cnc(C#N)c(C)c4)C(=O)C34CCC4)cc2F)cn1 [Cpd 75, 4-[6-(6-cyano-5-methyl-3-pyridyl)-5-oxo-7-thioxo-6,8-diazaspiro[3.4]octan-8-yl]-2-fluoro-N-(6-methyl-3-pyridyl)benzamide]	0.8%	0.8%
N#Cc1ncc(N2C(=O)C3(CCC3)N(c3cccc(CO)c3)C2=S)cc1C(F)(F)F [Cpd 81, 5-[8-[3-(hydroxymethyl)phenyl]-5-oxo-7-thioxo-6,8-diazaspiro[3.4]octan-6-yl]-3-(trifluoromethyl)pyridine-2-carbonitrile]	0.7%	1.2%
Cc1cc(N2C(=O)C3(CCC3)N(c3ccc(OC4CCOCC4)cc3)C2=S)cnc1C#N [Cpd 87, 3-methyl-5-[5-oxo-8-(4-tetrahydropyran-4-yloxyphenyl)-7-thioxo-6,8-diazaspiro[3.4]octan-6-yl]pyridine-2-carbonitrile]	1.1%	0.9%
N#Cc1ncc(N2C(=O)C3(CCC3)N(c3ccc(Oc4cncnc4)cc3)C2=S)cc1C(F)(F)F [Cpd 88, 5-[5-oxo-8-(4-pyrimidin-5-yloxyphenyl)-7-thioxo-6,8-diazaspiro[3.4]octan-6-yl]-3-(trifluoromethyl)pyridine-2-carbonitrile]	0.7%	0.7%
N#Cc1ncc(N2C(=O)C3(CCC3)N(c3ccc4[nH]ncc4c3)C2=S)cc1C(F)(F)F [Cpd 92, 5-[8-(1H-indazol-5-yl)-5-oxo-7-thioxo-6,8-diazaspiro[3.4]octan-6-yl]-3-(trifluoromethyl)pyridine-2-carbonitrile]	2.8%	1.3%
Cc1cc(N2C(=O)C3(CCC3)N(c3ccc(-c4cncnc4)cc3)C2=S)cnc1C#N [Cpd 93, 3-methyl-5-[5-oxo-8-(4-pyrimidin-5-ylphenyl)-7-thioxo-6,8-diazaspiro[3.4]octan-6-yl]pyridine-2-carbonitrile]	0.9%	0.8%
Cc1cc(N2C(=O)C3(CCC3)N(c3ccc(C4CCOCC4)cc3)C2=S)cnc1C#N [Cpd 101, 3-methyl-5-[5-oxo-8-(4-tetrahydropyran-4-ylphenyl)-7-thioxo-6,8-diazaspiro[3.4]octan-6-yl]pyridine-2-carbonitrile]	1.1%	1.7%

Source: US20190209539A1, “THIOHYDANTOIN ANDROGEN RECEPTOR ANTAGONISTS FOR THE TREATMENT OF CANCER” (Janssen Pharmaceutica NV, priority 2016, published 2019)
